Read-outs that look alike come from different tables or passages of the source.
Key:
SKBR-3 = assay: Cell viability assay (CCK-8), SKBR-3; type: cell-based, human
Method: (§1) Cells were seeded in a 96‐well plate at 1000–4000 cells per well for different cell lines. After overnight incubation, serially diluted samples (100 µL) were added to each well, and the plate was incubated at 37°C for 72 h (payloads) or 108 h (ADCs). After the old medium was replaced with 100 µL fresh medium, 10 µL of the Cell Counting Kit‐8 (CCK‐8) was added to each well, and the plate was incubated at 37°C for 2 h. After gently agitating the plate, the absorbance at 450 nm was recorded using a BioTek Synergy microplate reader. EC50 values were calculated using GraphPad Prism 9.3 software. All assays were performed in triplicate.

[1] = Parallel artificial membrane permeability assay (PAMPA); type: in vitro ADME; conditions: for Papp at 4 h, 10 µM: PAMPA
Method: PAMPA was performed by WuXi AppTec Co., Ltd. (Wuxi, China). In brief, 150 µL of 10.0 µM donor solutions (5% DMSO) were added to each well of the donor plate, whose PVDF membrane was precoated with 5 µL of 1% lecithin/dodecane mixture. Then, 300 µL of PBS was added to each well of the PTFE acceptor plate. After incubation for 4 h at room temperature with shaking at 300 rpm, the plate was removed from the incubator, and the solution was transferred from each acceptor and donor well and mixed with acetonitrile (containing internal standard) as samples. Acceptor samples and donor samples were all analyzed by LC‐MS/MS to determine permeability rates (Pe). All assays were performed in duplicates.

MDA-MB-231 = assay: Cell viability assay (CCK-8), MDA-MB-231; type: cell-based, human; conditions: read-out: IC50 MDA-MB-231
Method: as §1

MDA-MB-361 = assay: Cell viability assay (CCK-8), MDA-MB-361; type: cell-based; conditions: Homo sapiens, MDA-MB-361, 72 h, read-out: IC50 MDA-MB-361
Method: as §1

NCI-N87 = assay: Cell viability assay (CCK-8), NCI-N87; type: cell-based; conditions: Homo sapiens, NCI-N87, 72 h, read-out: IC50 NCI-N87
Method: as §1, with “After overnight incubation, serially diluted samples (100 µL) were added to each well, and the plate was incubated at 37°C for 72 h (payloads) or 108 h (ADCs).” left out

JIMT-1 = assay: Cell viability assay (CCK-8), JIMT-1; type: cell-based; conditions: Homo sapiens, JIMT-1, 72 h, read-out: IC50 JIMT-1
Method: as §1

MDA-MB-453 = assay: Cell viability assay (CCK-8), MDA-MB-453; type: cell-based; conditions: Homo sapiens, MDA-MB-453, 72 h, read-out: IC50 MDA-MB-453
Method: as §1, with “After overnight incubation, serially diluted samples (100 µL) were added to each well, and the plate was incubated at 37°C for 72 h (payloads) or 108 h (ADCs).” left out

Topo I = molecular target: T1, Topo I (Homo sapiens, UniProt P11387); assay: Topo I-mediated DNA cleavage assay; type: biochemical; conditions: 10 µM
T1 sequence (P11387 1-765): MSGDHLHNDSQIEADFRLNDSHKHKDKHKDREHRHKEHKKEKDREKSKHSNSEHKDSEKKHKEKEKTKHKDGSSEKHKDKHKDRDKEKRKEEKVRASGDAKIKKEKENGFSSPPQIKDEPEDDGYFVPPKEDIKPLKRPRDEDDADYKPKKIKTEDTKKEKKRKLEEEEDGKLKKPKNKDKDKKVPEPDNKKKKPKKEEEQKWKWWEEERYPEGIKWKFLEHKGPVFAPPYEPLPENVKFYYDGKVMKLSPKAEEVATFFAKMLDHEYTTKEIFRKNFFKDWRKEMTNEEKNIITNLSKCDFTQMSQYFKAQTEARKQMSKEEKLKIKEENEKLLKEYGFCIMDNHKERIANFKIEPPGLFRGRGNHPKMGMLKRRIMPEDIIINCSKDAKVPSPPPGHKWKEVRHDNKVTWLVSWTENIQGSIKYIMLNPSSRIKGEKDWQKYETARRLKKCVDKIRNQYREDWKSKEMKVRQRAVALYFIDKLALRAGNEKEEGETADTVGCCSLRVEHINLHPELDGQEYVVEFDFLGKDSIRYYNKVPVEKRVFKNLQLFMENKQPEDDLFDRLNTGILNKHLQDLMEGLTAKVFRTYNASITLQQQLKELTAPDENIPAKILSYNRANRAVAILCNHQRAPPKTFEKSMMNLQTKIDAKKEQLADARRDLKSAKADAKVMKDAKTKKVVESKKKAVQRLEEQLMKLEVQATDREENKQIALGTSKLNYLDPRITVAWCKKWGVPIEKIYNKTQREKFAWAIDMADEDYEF
Method: DNA cleavage assay was performed by Huawei Pharmaceutical Co., Ltd. (Jinan, China) with reference to previous literature about camptothecin derivatives.^[ [63] ^]

[2] = tested on: NCI-N87 and MDA-MB-231/GFP co-culture system; assay: In vitro co-culture model for bystander-killing evaluation; type: cell-based, human; conditions: GFP fluorescence intensity and fluorescence microscopy
Method: After overnight incubation, a single concentration or a serially diluted solution of each ADC was added. Cell viability was evaluated after 120 h using the cell counting kit‐8 assay. The mixed cell viability was determined by CCK‐8 assay. […] In the supernatant proliferation inhibition experiment, gradient concentrations of ADC were incubated with NCI‐N87 (4000 cells per well) for 48 h.

[3] = tested on: breast tumors with low HER2 expression; parameters: method as in ref 25, 26 = [25]; 25 S. Modi , W. Jacot , T. Yamashita , J. Sohn , M. Vidal , E. Tokunaga , J. Tsurutani , N. T. Ueno , A. Prat , Y. S. Chae , K. S. Lee , N. Niikura , Y. H. Park , B. Xu , X. Wang , M. Gil‐Gil , W. Li || [26]; 26 Cancer Discov. 2022 , 12 , 1828 .; conditions: breast tumors with low HER2 expression ref 25, 26; cited from earlier work
[4] = tested on: NCI-N87 cells and MDA-MB-231/teLuc cells (2: 5 ratio) xenograft; assay: Xenograft mouse model of HER2-heterogeneous cancer (co-inoculation) with teLuc imaging; type: in vivo, BALB/c nude mice; conditions: single intravenous dose of 2 or 5 mg kg^-1
Method: On day 7, the tumors reached an average volume of ≈180 mm^3, mice were randomized to each group, and each ADC was given to the mice at a single dose of 5 or 2 mg kg^−1 through injection via the tail vein, with a volume of 10 mL kg^−1. The size of the tumor and body weight were monitored three times a week. The tumor volume was estimated on the mathematical formula, which is 1/2 × length × width^2.
Teal luciferase activity of each mouse in the HER2‐heterogeneous xenograft model was determined by an in vivo Imaging System (IVIS) Spectrum CT (PerkinElmer, USA) once a week (Day 7, 14, 21, 35) 10 min after intraperitoneal injection of pre‐dissolved DTZ (MeisenCTCC). The amount of luminescence was analyzed using analysis software (Living Image Software version 4.3.1; PerkinElmer) as average radiance (p per s per cm^2 per sr).

[5] = tested on: HER2-low-expressing urothelial carcinoma; parameters: method as in ref 29 = [29]; 29 H. Xu , X. Sheng , L. Zhou , X. Yan , S. Li , Z. Chi , C. Cui , L. Si , B. Tang , L. Mao , B. Lian , X. Wang , X. Bai , J. Li , J. Guo , JCO 2022 , 40 , 4519 .; conditions: patients with HER2(IHC 1+), 5/13, phase II ref 29; cited from earlier work
[6] = payloads, 3 days (72 h), HER2++, read-out: IC50 SKBR-3
[7] = 10.0 µM donor solution, 4 h, room temperature
[8] = 10.0 µM donor solution, 4 h, room temperature, read-out: Peff (PAMPA permeability)
[9] = Homo sapiens, SK-BR-3, 72 h, read-out: IC50 SKBR-3
[10] = Homo sapiens, SK-BR-3, read-out: pIC50 (converted)
[11] = Homo sapiens, SK-BR-3, Normalized from IC50 (μM) against SKBR-3, read-out: pIC50 (converted)
[12] = Homo sapiens, SK-BR-3, payloads, 3 days (72 h), HER2++, read-out: IC50 SKBR-3
[13] = Homo sapiens, MDA-MB-231, payloads, 3 days (72 h), HER2-

Molecule: CC[C@@]1(O)C(=O)OCc2c1cc1n(c2=O)Cc2c-1nc1cc(F)c(C)c3c1c2[C@@H](NC(=O)C(O)c1ccccc1)CC3 (single isomer, unassigned) [Ed3]
- IC50 (SKBR-3; [6]): 0.109 ± 0.0122 µM

Molecule: CC[C@@]1(O)C(=O)OCc2c1cc1n(c2=O)Cc2c-1nc1cc(F)c(C)c3c1c2[C@@H](NC(=O)C(O)c1ccccc1)CC3 (single isomer, unassigned) [Ed4]
- Peff (PAMPA permeability) [1, 7]: 3.43 10^-6 cm/s
- IC50 (SKBR-3; [6]): 0.0495 ± 0.00832 µM
- IC50 (MDA-MB-231; payloads, 3 days (72 h), HER2-): 4.41 nM

Molecule: NC(=O)N1c2ccccc2C=Cc2ccccc21 [Carbamazepine, reference compound]
- Papp at 4 h, 10 µM [1, 8]: > 10 ×10⁻⁶ cm/s

Molecule: CCC1(O)C(=O)OCc2c1cc1n(c2=O)Cc2c-1nc1cc(F)c(C)c3c1c2C(NC(=O)CO)CC3 (stereo not shown) [DXd, reference compound]
- Papp at 4 h, 10 µM [1, 8]: 3.12 ×10⁻⁶ cm/s
- IC50 (MDA-MB-361): 16.4 nM
- IC50 (SKBR-3; [9]): 0.0739 ± 0.0171 µM
- IC50 (SKBR-3; [10]): 0.074 µM
- IC50 (NCI-N87): 9.03 nM
- IC50 (MDA-MB-231; Homo sapiens, MDA-MB-231, 72 h): 25.8 nM
- IC50 (JIMT-1): 577 nM
- IC50 (MDA-MB-453): 262 nM

Molecule: CC[C@@]1(O)C(=O)OCc2c1cc1n(c2=O)Cc2c-1nc1cc(F)c(C)c3c1c2[C@@H](NC(=O)[C@@H](O)C(C)C)CC3 [Ed1]
- IC50 (SKBR-3; [9]): 0.129 µM
- IC50 (SKBR-3; [10]): 0.129 µM

Molecule: CC[C@@]1(O)C(=O)OCc2c1cc1n(c2=O)Cc2c-1nc1cc(F)c(C)c3c1c2[C@@H](NC(=O)[C@H](O)C(C)C)CC3 [Ed2]
- Peff (PAMPA permeability) [1, 7]: 2.67 10^-6 cm/s
- IC50 (SKBR-3; [6]): 0.0421 µM
- IC50 (MDA-MB-231; payloads, 3 days (72 h), HER2-): 8.32 nM

Molecule: CC[C@@]1(O)C(=O)OCc2c1cc1n(c2=O)Cc2c-1nc1cc(F)c(C)c3c1c2[C@@H](NC(=O)C[C@@H](O)c1ccccc1)CC3 [Ed5]
- IC50 (SKBR-3; [6]): 0.177 ± 0.0158 µM

Molecule: CC[C@@]1(O)C(=O)OCc2c1cc1n(c2=O)Cc2c-1nc1cc(F)c(C)c3c1c2[C@@H](NC(=O)[C@H](O)C(F)(F)F)CC3 [Ed6]
- IC50 (SKBR-3; [11]): 0.0604 µM
- IC50 (SKBR-3; [12]): 0.0604 µM
- IC50 (MDA-MB-231; [13]): 9.46 nM

Molecule: CC[C@@]1(O)C(=O)OCc2c1cc1n(c2=O)Cc2c-1nc1cc(F)c(C)c3c1c2[C@@H](NC(=O)C(O)C(F)(F)F)CC3 (stereo partly shown) [Ed7]
- Peff (PAMPA permeability) [1, 7]: 4.96 10^-6 cm/s
- IC50 (SKBR-3; [6]): 0.0415 µM
- IC50 (MDA-MB-231; payloads, 3 days (72 h), HER2-): 6.11 nM

Molecule: CC[C@@]1(O)C(=O)OCc2c1cc1n(c2=O)Cc2c-1nc1cc(F)c(C)c3c1c2[C@@H](NC(=O)C(C)(C)O)CC3 [Ed8]
- Papp at 4 h, 10 µM [1]: 5.74 ×10⁻⁶ cm/s
- IC50 (SKBR-3; [11]): 0.0144 µM
- IC50 (SKBR-3; [12]): 0.0144 ± 0.00379 µM
- IC50 (MDA-MB-231; [13]): 4.21 nM

Molecule: CC[C@@]1(O)C(=O)OCc2c1cc1n(c2=O)Cc2c-1nc1cc(F)c(C)c3c1c2[C@@H](NC(=O)C1(O)CCC1)CC3 [Ed9]
- Papp at 4 h, 10 µM [1]: 5.66 ×10⁻⁶ cm/s
- IC50 (MDA-MB-361; payloads, 3 days, HER2+): 1.69 nM
- Topo I inhibitory activity (Topo I): significantly lower than that of DXd
- IC50 (SKBR-3; [11]): 0.0132 µM
- IC50 (SKBR-3; [12]): 0.0131 ± 0.00424 µM
- IC50 (NCI-N87; payloads, 3 days, HER2++): 1.17 nM
- IC50 (MDA-MB-231; [13]): 2.69 nM
- IC50 (JIMT-1; payloads, 3 days, HER2+): 193 nM
- IC50 (MDA-MB-453; payloads, 3 days, HER2+): 120 nM

Molecule: CC[C@@]1(O)C(=O)OCc2c1cc1n(c2=O)Cc2c-1nc1cc(F)c(C)c3c1c2[C@@H](NC(=O)C1(O)CCCC1)CC3 [Ed10]
- Topo I inhibitory activity (Topo I): lose their inhibitory activity
- IC50 (SKBR-3; [9]): 0.0178 ± 0.00369 µM
- IC50 (SKBR-3; [10]): 0.0178 µM
- IC50 (MDA-MB-231; Homo sapiens, MDA-MB-231, 72 h): 5.17 nM

Molecule: CC[C@@]1(O)C(=O)OCc2c1cc1n(c2=O)Cc2c-1nc1cc(F)c(C)c3c1c2[C@@H](NC(=O)C1(O)CCCCC1)CC3 [Ed11]
- Peff (PAMPA permeability) [1, 7]: 6.12 10^-6 cm/s
- IC50 (SKBR-3; [6]): 0.0177 ± 0.00534 µM
- IC50 (MDA-MB-231; payloads, 3 days (72 h), HER2-): 5.43 nM

Molecule: T-DM1
- killing of both NCI-N87 and MDA-MB-231/GFP cells in co-culture [2]: did not
- effect [3]: limited effect
- tumor volume change [4]: less effective

B1: Disitamab Vedotin (conjugate, chains of the INN, looked up)
VH: EVQLVQSGAEVKKPGATVKISCKVSGYTFTDYYIHWVQQAPGKGLEWMGRVNPDHGDSYYNQKFKDKATITADKSTDTAYMELSSLRSEDTAVYFCARNYLFDHWGQGTLVTVSS
VL: DIQMTQSPSSVSASVGDRVTITCKASQDVGTAVAWYQQKPGKAPKLLIYWASIRHTGVPSRFSGSGSGTDFTLTISSLQPEDFATYYCHQFATYTFGGGTKVEIK
modifications: vedotin (MMAE) payload
- ORR [5]: 38%

— publication PMC10987111, “Rational Identification of Novel Antibody‐Drug Conjugate with High Bystander Killing Effect against Heterogeneous Tumors” (Advanced Science, 2024)
